Assay results as given in PMC6001238, “Iterative Chemical Engineering of Vancomycin Leads to Novel Vancomycin Analogs With a High in Vitro Therapeutic Index” (Frontiers in Microbiology, 2018).
≈ marks a conversion by molar mass, not a printed value. Read-outs that look alike come from different tables or passages of the source.

Key:
[1] = test system: L1210, CEM and HeLa cell lines; test: Cytostatic activity, average or summary over L1210, CEM and HeLa; type: cell-based
How it was run: (§1)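 Test compounds, serially diluted, received an equal volume of cell suspension at 300,000–500,000 cells/mL. After 37°C incubation (2 days for L1210, 3 for CEM, 4 for HeLa), cells were enumerated by Coulter counting and 50%-inhibitory concentrations calculated per cell type.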

VE 149 (VanB) = test: MIC, VanB-type VRE strain VE 149; type: cell-based, Enterococcus; settings: Enterococcus; VE 149, VanB; read-out: MIC
Protocol: (§2) The minimum inhibitory concentration (MIC) was determined using the broth microdilution method according to the antimicrobial susceptibility testing standards of the clinical and laboratory standards institute ([Clinical and Laboratory Standards Institute [CLSI], 2012]). Ultrapure water and non-inoculated broth were used as controls. In one case, a final concentration of 10 μM vancomycin was included with the vancomycin analog or control antibiotic.

VE 152 (VanB) = test: MIC, VanB-type VRE strain VE 152; type: cell-based, Enterococcus; settings: Enterococcus; VE 152, VanB; read-out: MIC
Protocol: as §2

E. faecalis VSE 1 = test: MIC, broth microdilution, vancomycin-sensitive E. faecalis (VSE 1); type: cell-based, Enterococcus faecalis
How it was run: (§3)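 MIC values come from broth microdilution run to CLSI susceptibility-testing standards. Ultrapure water and uninoculated broth served as controls. In one series, vancomycin at a final 10 μM was co-dosed with the analogue or comparator antibiotic.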

VE 150 (VanB) = test: MIC, VanB-type VRE strain VE 150; type: cell-based, Enterococcus; settings: Enterococcus; VE 150, VanB; read-out: MIC
Protocol: as §2

MRSA KS2 = test: MIC, broth microdilution, MRSA KS2; type: cell-based, Staphylococcus aureus
How it was run: as §3

MRSA KS1 = test: MIC, broth microdilution, MRSA KS1; type: cell-based, Staphylococcus aureus
How it was run: as §3

[2] = test system: Clostridium difficile ATJ ribotype 014/20; test: MIC, plate drop assay, C. difficile ATJ ribotype 014/20; type: cell-based
How it was run: (§4)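 Lawns of each strain were made in soft BHI agar (0.4%) supplemented with CaCl2⋅2H2O and MgCl2⋅6H2O. Twofold compound dilutions (10 μL) were spotted, air-dried and incubated overnight at 37°C anaerobically; MIC read as cleared spots, in triplicate with water as negative control.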

VE 148 (VanB) = test: MIC, VanB-type VRE strain VE 148; type: cell-based, Enterococcus; settings: Enterococcus; VE 148, VanB; read-out: MIC
Protocol: as §2

E. faecalis VRE 29 = test: MIC, broth microdilution, vancomycin-resistant E. faecalis VRE 29 (VanA); type: cell-based, Enterococcus faecalis
How it was run: as §3

[3] = test system: 24 clinical MRSA isolates; test: MIC against a set of 24 clinical MRSA isolates (range, MIC50, TI); type: cell-based, Staphylococcus aureus
Protocol: as §2

MRSA KS89 = test: MIC, broth microdilution, MRSA KS89; type: cell-based, Staphylococcus aureus
How it was run: as §3

[4] = test system: human cervix carcinoma (HeLa) cells; test: Cytostatic activity, HeLa cell proliferation; type: cell-based; settings: Homo sapiens, HeLa, 96 h; mean ± SD of three experiments; highest concentration tested 250 µM; 4 days; read-out: Toxicity (IC50) HeLa
How it was run: as §1

E. faecalis VRE 37 = test: MIC, broth microdilution, vancomycin-resistant E. faecalis VRE 37 (VanA); type: cell-based, Enterococcus faecalis
How it was run: as §3

[5] = test system: S. aureus VSSA (ATCC 6538); test: MIC, broth microdilution, vancomycin-sensitive S. aureus (VSSA/MSSA, ATCC 6538); type: cell-based, Staphylococcus aureus
How it was run: as §3

33 clinical VRE isolates = test: MIC against a set of 33 clinical VRE isolates (range, MIC50, TI); type: cell-based, Enterococcus faecalis
Protocol: as §2

VE 157 (VanB) = test: MIC, VanB-type VRE strain VE 157; type: cell-based, Enterococcus; settings: Enterococcus; VE 157, VanB; read-out: MIC
Protocol: as §2

E. faecalis VRE 53 = test: MIC, broth microdilution, vancomycin-resistant E. faecalis VRE 53 (VanA); type: cell-based, Enterococcus faecalis
How it was run: as §3

MRSA KS6 = test: MIC, broth microdilution, MRSA KS6; type: cell-based, Staphylococcus aureus; settings: Staphylococcus aureus MRSA KS6; read-out: MIC
How it was run: as §3

[6] = test system: Murine leukemia (L1210) cells; test: Cytostatic activity, L1210 cell proliferation; type: cell-based; settings: Mus musculus, L1210, 48 h; mean ± SD of three experiments; highest concentration tested 250 µM; 2 days; read-out: Toxicity (IC50) L1210
How it was run: as §1

S. aureus VRSA = test: MIC, broth microdilution, vancomycin-resistant S. aureus (VRSA); type: cell-based, Staphylococcus aureus
How it was run: as §3

VE 82 (VanC1) = test: MIC, VanC1-type VRE strain VE 82; type: cell-based, Enterococcus gallinarum; settings: Enterococcus gallinarum; VE 82, VanC1; read-out: MIC
Protocol: as §2

S. aureus VISA/HIP5827 = test: MIC, broth microdilution, vancomycin-intermediate S. aureus VISA HIP5827; type: cell-based, Staphylococcus aureus
How it was run: as §3

[7] = test system: Clostridium difficile AIU ribotype 027; test: MIC, plate drop assay, C. difficile AIU ribotype 027; type: cell-based
How it was run: as §4

E. faecalis VRE 6 = test: MIC, broth microdilution, vancomycin-resistant E. faecalis VRE 6 (VanA); type: cell-based, Enterococcus faecalis
How it was run: as §3

MRSA = test: Minimum bactericidal concentration against MRSA; type: cell-based, Staphylococcus aureus
Protocol: Plates were incubated overnight at 37°C and colony growth was inspected.

[8] = test system: human T-lymphocyte (CEM) cells; test: Cytostatic activity, CEM cell proliferation; type: cell-based; settings: Homo sapiens, CCRF-CEM, 72 h; mean ± SD of three experiments; highest concentration tested 250 µM; 3 days; read-out: Toxicity (IC50) CEM
How it was run: as §1

## CCCCCCCCCC(=O)N[C@@H](Cc1c[nH]c2ccccc12)C(=O)N[C@H](CC(N)=O)C(=O)N[C@@H](CC(=O)O)C(=O)N[C@@H]1C(=O)NCC(=O)N[C@@H](CCCN)C(=O)N[C@@H](CC(=O)O)C(=O)N[C@H](C)C(=O)N[C@@H](CC(=O)O)C(=O)NCC(=O)N[C@H](CO)C(=O)N[C@@H]([C@H](C)CC(=O)O)C(=O)N[C@@H](CC(=O)c2ccccc2N)C(=O)O[C@@H]1C [Daptomycin, reference compound]
[1]; average IC50 used for TI in Table S5, >250 entered as 250, read-out: IC50
  IC50: 250 µM
[1]; average of L1210, CEM and HeLa, read-out: Toxicity (IC50) Average
  IC50: > 250 µM
VE 149 (VanB)
  MIC: 25 µM (≈ 40.5 µg/mL)
VE 152 (VanB)
  MIC: 25 µM (≈ 40.5 µg/mL)
E. faecalis VSE 1; VSE1, Enterococcus faecalis VSE 1 (vancomycin-sensitive), read-out: MIC
  MIC: > 6.25 µM
E. faecalis VSE 1; VSE 1, ratio of MIC of vancomycin and MIC of analogue
  MIC-fold improvement vs. vancomycin: <0.2
VE 150 (VanB)
  MIC: 25 µM (≈ 40.5 µg/mL)
MRSA KS2; MRSA KS2, ratio of MIC of vancomycin and MIC of analogue
  MIC-fold improvement vs. vancomycin: 0.05
MRSA KS2; Staphylococcus aureus MRSA KS2, read-out: MIC
  MIC: 12.5 µM (≈ 20.3 µg/mL)
MRSA KS1; MRSA KS1, ratio of MIC of vancomycin and MIC of analogue
  MIC-fold improvement vs. vancomycin: 0.05
MRSA KS1; Staphylococcus aureus MRSA KS1, read-out: MIC
  MIC: 12.5 µM (≈ 20.3 µg/mL)
[2]; C. difficile ATJ ribotype 014/20
  MIC-fold improvement vs. vancomycin: 22
[2]; Clostridioides difficile, C. difficile ATJ ribotype 014/20, plate drop assay
  MIC: 1.56 µM (≈ 2.53 µg/mL)
VE 148 (VanB)
  MIC: 25 µM (≈ 40.5 µg/mL)
E. faecalis VRE 29; Enterococcus faecalis VRE 29 (vancomycin-resistant), read-out: MIC
  MIC: 50 µM (≈ 81 µg/mL)
E. faecalis VRE 29; VRE 29, ratio of MIC of vancomycin and MIC of analogue
  MIC-fold improvement vs. vancomycin: 8
[3]; 24 clinical MRSA isolates
  MIC Range: 0.78 to 12.5 µM
[3]; Staphylococcus aureus, median MIC, 24 clinical MRSA isolates, read-out: MIC50
  MIC50: 0.78 µM (≈ 1.26 µg/mL)
[3]; in vitro therapeutic index, MRSA
  TI (IC50/MIC50): 321
MRSA KS89; MRSA KS8 (head; KS89 in title), ratio of MIC of vancomycin and MIC of analogue
  MIC-fold improvement vs. vancomycin: 0.1
MRSA KS89; Staphylococcus aureus MRSA KS8 (head; KS89 in title), read-out: MIC
  MIC: 6.25 µM (≈ 10.1 µg/mL)
[4]
  IC50: > 250 µM
E. faecalis VRE 37; Enterococcus faecalis VRE 37 (vancomycin-resistant), read-out: MIC
  MIC: 50 µM (≈ 81 µg/mL)
E. faecalis VRE 37; VRE 37, ratio of MIC of vancomycin and MIC of analogue
  MIC-fold improvement vs. vancomycin: 8
[5]; ATCC6538, Staphylococcus aureus VSSA, read-out: MIC
  MIC: > 6.25 µM
[5]; VSSA, ratio of MIC of vancomycin and MIC of analogue
  MIC-fold improvement vs. vancomycin: <0.1
33 clinical VRE isolates; 33 clinical VRE isolates
  MIC Range: 3.13 to 12.5 µM
33 clinical VRE isolates; Enterococcus, median MIC, 33 clinical VRE isolates, read-out: MIC50
  MIC50: 6.25 µM (≈ 10.1 µg/mL)
33 clinical VRE isolates; in vitro therapeutic index, VRE
  TI (IC50/MIC50): 40
VE 157 (VanB)
  MIC: 12.5 µM (≈ 20.3 µg/mL)
E. faecalis VRE 53; Enterococcus faecalis VRE 53 (vancomycin-resistant), read-out: MIC
  MIC: 50 µM (≈ 81 µg/mL)
E. faecalis VRE 53; VRE 53, ratio of MIC of vancomycin and MIC of analogue
  MIC-fold improvement vs. vancomycin: 8
MRSA KS6
  MIC: > 12.5 µM
[6]
  IC50: > 250 µM
S. aureus VRSA; Staphylococcus aureus VRSA, read-out: MIC
  MIC: 12.5 µM (≈ 20.3 µg/mL)
S. aureus VRSA; VRSA, ratio of MIC of vancomycin and MIC of analogue
  MIC-fold improvement vs. vancomycin: 8
VE 82 (VanC1)
  MIC: 12.5 µM (≈ 20.3 µg/mL)
S. aureus VISA/HIP5827; Staphylococcus aureus VISA/HIP5827, read-out: MIC
  MIC: > 12.5 µM
S. aureus VISA/HIP5827; VISA/HIP5827, ratio of MIC of vancomycin and MIC of analogue
  MIC-fold improvement vs. vancomycin: <0.5
[7]; C. difficile AIU ribotype 027
  MIC-fold improvement vs. vancomycin: 29
[7]; Clostridioides difficile, C. difficile AIU ribotype 027, plate drop assay
  MIC: 1.56 µM (≈ 2.53 µg/mL)
E. faecalis VRE 6; Enterococcus faecalis VRE 6 (vancomycin-resistant), read-out: MIC
  MIC: 6.25 µM (≈ 10.1 µg/mL)
E. faecalis VRE 6; VRE 6, ratio of MIC of vancomycin and MIC of analogue
  MIC-fold improvement vs. vancomycin: 32
MRSA
  MBC relative to MIC: MBC equaling their MIC values
[8]
  IC50: > 250 µM
